Test results as given in patent US10617680B2 (CELGENE QUANTICEL RESEARCH, INC., priority 2017, dated 2020).
Where two headings read alike, the source gives them in different places.

Molecular target: CBP (Homo sapiens (Human), UniProt Q92793)
Test: In vitro CBP inhibition (AlphaScreen, biotinylated H4-tetraacetyl peptide)
Assay type: binding
Protocol: The CBP-inhibitory activity of the compounds described herein was determined by calculating the IC50. More specifically, CBP inhibitor activity was assayed as follows: CBP was cloned and expressed in E. coli as His-tag protein and purified by Nickel affinity and gel-filtration chromatography. […] CBP binding and inhibition is assessed by monitoring the interaction of biotinylated H4-tetraacetyl peptide (AnaSpec, H4K5/8/12/16(Ac), biotin-labeled) with the target using the AlphaScreen technology (Perkin Elmer). In a 384-well ProxiPlate CBP (50 nM final) was combined with peptide (20 nM final) in 50 mM HEPES (pH 7.3), 10 mM NaCl, 0.25 mM TCEP, 0.1% (w/v) BSA, and 0.005% (w/v) Brij-35 either in the presence of DMSO (final 0.4% DMSO) or compound dilution series in DMSO. After 20 min incubation at room temp, Alpha-streptavidin donor beads and Nickel Chelate acceptor beads were added to a final concentration of 5 μg/mL.
The ability of the compounds disclosed herein to inhibit CBP activity was quantified and the respective IC50 value determined.

[1] = AlphaScreen, Table 29, read-out: CBP IC50

CBP, sequence (Q92793 1081-1197): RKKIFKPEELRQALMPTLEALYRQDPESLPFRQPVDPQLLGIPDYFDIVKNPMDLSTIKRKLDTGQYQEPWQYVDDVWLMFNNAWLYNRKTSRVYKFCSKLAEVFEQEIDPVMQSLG

Row | Compound | IC50 [1] | also measured
1 | CC(=O)NC[C@@H]1CCN(c2cc(=O)n(C)cc2-c2cnn(Cc3ccccc3)c2)C1 (stereo in doubt) [Example 89, N-{1-[5-(1-benzyl-1H-pyrazol-4-yl)-1-methyl-2-oxo-1,2-dihydro-pyridin-4-yl]-pyrrolidin-3-ylmethyl}-acetamide] | < 500 nM | –
2 | CC(=O)NC[C@H]1CCN(c2cc(=O)n(C)cc2-c2cnn(Cc3ccccc3)c2)C1 (stereo in doubt) [Example 90, N-{1-[5-(1-benzyl-1H-pyrazol-4-yl)-1-methyl-2-oxo-1,2-dihydro-pyridin-4-yl]-pyrrolidin-3-yl-methyl}-acetamide] | 500 to 5000 nM | –
3 | Cn1cc(-c2cnn(Cc3ccccc3)c2)c(-n2cccc2)cc1=O [5-(1-benzyl-1H-pyrazol-4-yl)-1-methyl-4-(1H-pyrrol-1-yl)pyridin-2(1H)-one] | – | IC50 for CBP compared with BRD4 (selectivity) (CBP versus BRD4): lower IC50 for CBP than for BRD4
4 | Cn1cc(-c2cnn(Cc3ccccc3)c2)ccc1=O [Example 1, 5-(1-benzyl-1H-pyrazol-4-yl)-1-methylpyridin-2(1H)-one] | – | IC50: 500 to 5000 nM
5 | Cn1cc(-c2cnn(C(c3ccccc3)C3CC3)c2)ccc1=O (stereo not shown) [Example 2] | – | IC50: 500 to 5000 nM
6 | Cn1cc(-c2cnn(Cc3ccccc3C#N)c2)ccc1=O [Example 3, 2-((4-(1-methyl-6-oxo-1,6-dihydropyridin-3-yl)-1H-pyrazol-1-yl)methyl)benzonitrile] | 500 to 5000 nM | –
7 | Cn1cc(-c2cnn(Cc3cccc(C#N)c3)c2)ccc1=O [Example 4, 3-((4-(1-methyl-6-oxo-1,6-dihydropyridin-3-yl)-1H-pyrazol-1-yl)methyl)benzonitrile] | 500 to 5000 nM | –
8 | Cn1cc(-c2cnn(Cc3ccccn3)c2)ccc1=O [Example 5, 1-methyl-5-(1-(pyridin-2-ylmethyl)-1H-pyrazol-4-yl)pyridin-2(1H)-one] | 500 to 5000 nM | –
9 | Cn1cc(-c2cnn(Cc3ccc(F)cc3)c2)ccc1=O [Example 6, 5-(1-(4-fluorobenzyl)-1H-pyrazol-4-yl)-1-methylpyridin-2(1H)-one] | 500 to 5000 nM | –
10 | CCn1cc(-c2cnn(Cc3ccccc3)c2)ccc1=O [Example 10, 5-(1-benzyl-1H-pyrazol-4-yl)-1-ethylpyridin-2(1H)-one] | 500 to 5000 nM | –
11 | Cc1cc(-c2cnn(C(C)c3cccc(C(F)F)c3)c2)cn(C)c1=O (stereo not shown) [Example 11, 5-(1-(1-(3-(difluoro-methyl)phenyl)ethyl)-1H-pyrazol-4-yl)-1,3-dimethylpyridin-2(1H)-one] | < 500 nM | –
12 | CC(c1ccccc1)n1cc(-c2ccc(=O)n(C)c2)cn1 (stereo not shown) [Example 12, 1-methyl-5-(1-(1-phenylethyl)-1H-pyrazol-4-yl)pyridin-2(1H)-one] | 500 to 5000 nM | –
13 | CC(c1cccc(C#N)c1)n1cc(-c2ccc(=O)n(C)c2)cn1 (stereo not shown) [Example 16, 3-(1-(4-(1-methyl-6-oxo-1,6-dihydropyridin-3-yl)-1H-pyrazol-1-yl)ethyl)benzonitrile] | 500 to 5000 nM | –
14 | Cc1cccc(C(C)n2cc(-c3ccc(=O)n(C)c3)cn2)c1 (stereo not shown) [Example 20, 1-methyl-5-(1-(1-(m-tolyl)ethyl)-1H-pyrazol-4-yl)pyridin-2(1H)-one] | < 500 nM | –
15 | CC(c1ccccc1)n1cc(-c2cn(C)c(=O)cc2F)cn1 (stereo not shown) [Example 21, 4-fluoro-1-methyl-5-(1-(1-phenylethyl)-1H-pyrazol-4-yl) pyridin-2(1H)-one] | 500 to 5000 nM | –
16 | Cc1ccccc1C(C)n1cc(-c2ccc(=O)n(C)c2)cn1 (stereo not shown) [Example 22, 1-methyl-5-(1-(1-(o-tolyl)ethyl)-1H-pyrazol-4-yl)pyridin-2(1H)-one] | < 500 nM | –
17 | CC(c1cccnc1)n1cc(-c2ccc(=O)n(C)c2)cn1 (stereo not shown) [Example 24, 1-methyl-5-(1-(1-(pyridin-3-yl)ethyl)-1H-pyrazol-4-yl)pyridin-2(1H)-one] | 500 to 5000 nM | –
18 | CC(c1ccc(C#N)cc1)n1cc(-c2ccc(=O)n(C)c2)cn1 (stereo not shown) [Example 25, 4-(1-(4-(1-methyl-6-oxo-1,6-dihydropyridin-3-yl)-1H-pyrazol-1-yl)ethyl)benzonitrile] | 500 to 5000 nM | –
19 | CC(c1ccccc1)n1cc(-c2cc(F)c(=O)n(C)c2)cn1 (stereo not shown) [Example 26, 3-fluoro-1-methyl-5-(1-(1-phenylethyl)-1H-pyrazol-4-yl) pyridin-2(1H)-one] | 500 to 5000 nM | –
20 | COc1ccccc1C(C)n1cc(-c2ccc(=O)n(C)c2)cn1 (stereo not shown) [Example 27, 5-(1-(1-(2-methoxy-phenyl)ethyl)-1H-pyrazol-4-yl)-1-methyl-pyridin-2(1H) one] | < 500 nM | –
21 | COc1cccc(C(C)n2cc(-c3ccc(=O)n(C)c3)cn2)c1 (stereo not shown) [Example 28, 5-(1-(1-(3-methoxy-phenyl)ethyl)-1H-pyrazol-4-yl)-1-methyl-pyridin-2(1H)--one] | < 500 nM | –
22 | CC(c1ccncc1)n1cc(-c2ccc(=O)n(C)c2)cn1 (stereo not shown) [Example 29, 1-methyl-5-(1-(1-(pyridin-4-yl)ethyl)-1H-pyrazol-4-yl)pyridin-2(1H)-one] | 500 to 5000 nM | –
23 | COc1cc(-c2cnn(C(C)c3ccccc3)c2)cn(C)c1=O (stereo not shown) [Example 32, 3-methoxy-1-methyl-5-(1-(1-phenylethyl)-1H-pyrazol-4-yl) pyridin-2(1H)-one] | 500 to 5000 nM | –
24 | Cc1cc(-c2cnn(C(C)c3ccccc3)c2C)cn(C)c1=O (stereo not shown) [Example 34, 1,3-dimethyl-5-(5-methyl-1-(1-phenylethyl)-1H-pyrazol-4-yl) pyridin-2(1H)-one] | < 500 nM | –

Now from value to molecule, other results behind:

Row | IC50 [1] | Compound | also measured
25 | < 500 nM | Cc1cc(=O)n(C)cc1-c1cnn(Cc2ccccc2)c1 [Example 7, 5-(1-benzyl-1H-pyrazol-4-yl)-1,4-dimethyl-pyridin-2(1H)-one] | –
26 | < 500 nM | Cn1cc(-c2cnn(Cc3ccccc3)c2)c2ccccc2c1=O [Example 8, 4-(1-benzyl-1H-pyrazol-4-yl)-2-methyliso-quinolin-1(2H)-one] | –
27 | < 500 nM | Cn1cc(-c2cnn(Cc3ccccc3)c2)c2cnccc2c1=O [Example 9, 4-(1-benzyl-1H-pyrazol-4-yl)-2-methyl-2,6-naphthyridin-1(2H)-one] | –
28 | < 500 nM | Cc1cc(-c2cnn(Cc3ccccc3)c2)cn(C)c1=O [Example 13, 5-(1-benzyl-1H-pyrazol-4-yl)-1,3-dimethyl-pyridin-2(1H)-one] | –
29 | < 500 nM | Cc1cc(-c2cnn(C(C)c3ccccc3)c2)cn(C)c1=O (stereo not shown) [Example 17, 1,3-dimethyl-5-(1-(1-phenylethyl)-1H-pyrazol-4-yl)pyridin-2(1H)-one] | –
30 | < 500 nM | CC(c1ccccc1Cl)n1cc(-c2ccc(=O)n(C)c2)cn1 (stereo not shown) [Example 19, 5-(1-(1-(2-chlorophenyl)ethyl)-1H-pyrazol-4-yl)-1-methyl-pyridin-2(1H)-one] | –
31 | < 500 nM | CC(c1cccc(Cl)c1)n1cc(-c2ccc(=O)n(C)c2)cn1 (stereo not shown) [Example 23, 5-(1-(1-(3-chlorophenyl)ethyl)-1H-pyrazol-4-yl)-1-methyl-pyridin-2(1H)-one] | –
32 | < 500 nM | Cc1c(-c2cnn(C(C)c3ccccc3)c2)cn(C)c(=O)c1C (stereo not shown) [Example 30, 1,3,4-trimethyl-5-(1-(1-phenylethyl)-1H-pyrazol-4-yl)pyridin-2(1H)-one] | –
33 | < 500 nM | CC(c1ccccc1)n1cc(-c2cc(Cl)c(=O)n(C)c2)cn1 (stereo not shown) [Example 31, 3-chloro-1-methyl-5-(1-(1-phenylethyl)-1H-pyrazol-4-yl) pyridin-2(1H)-one] | –
34 | < 500 nM | CC(c1ccccc1)n1cc(-c2cn(C)c(=O)c3c2CCC3)cn1 (stereo not shown) [Example 33, 2-methyl-4-(1-(1-phenylethyl)-1H-pyrazol-4-yl)-2,5,6,7-tetrahydro-1H-cyclopenta[c]pyridin-1-one] | –
